Results as given in BindingDB's records for PubMed 2176210 (Ciba-Geigy, 1990).
Each block holds one molecule with its values, some of them ahead of it.

Experiments:
Assay in all cases: Kinase Assay
[1] = target: Epidermal growth factor receptor (Homo sapiens, UniProt P00533)
Method: Determination of EGF receptor kinase activity was performed as described using A431 membranes as the enzyme source and agiotensin II as substrate.

[2] = target: Protein kinase C alpha type (Homo sapiens, UniProt P17252)
[3] = target: Tyrosine-protein kinase CSK (Homo sapiens, UniProt P41240)
[4] = target: Tyrosine-protein kinase ABL1 (Homo sapiens, UniProt P00519)
[5] = target: cAMP-dependent protein kinase catalytic subunit alpha (Homo sapiens, UniProt P17612)

Sequence of Tyrosine-protein kinase ABL1 (P00519 whole entry): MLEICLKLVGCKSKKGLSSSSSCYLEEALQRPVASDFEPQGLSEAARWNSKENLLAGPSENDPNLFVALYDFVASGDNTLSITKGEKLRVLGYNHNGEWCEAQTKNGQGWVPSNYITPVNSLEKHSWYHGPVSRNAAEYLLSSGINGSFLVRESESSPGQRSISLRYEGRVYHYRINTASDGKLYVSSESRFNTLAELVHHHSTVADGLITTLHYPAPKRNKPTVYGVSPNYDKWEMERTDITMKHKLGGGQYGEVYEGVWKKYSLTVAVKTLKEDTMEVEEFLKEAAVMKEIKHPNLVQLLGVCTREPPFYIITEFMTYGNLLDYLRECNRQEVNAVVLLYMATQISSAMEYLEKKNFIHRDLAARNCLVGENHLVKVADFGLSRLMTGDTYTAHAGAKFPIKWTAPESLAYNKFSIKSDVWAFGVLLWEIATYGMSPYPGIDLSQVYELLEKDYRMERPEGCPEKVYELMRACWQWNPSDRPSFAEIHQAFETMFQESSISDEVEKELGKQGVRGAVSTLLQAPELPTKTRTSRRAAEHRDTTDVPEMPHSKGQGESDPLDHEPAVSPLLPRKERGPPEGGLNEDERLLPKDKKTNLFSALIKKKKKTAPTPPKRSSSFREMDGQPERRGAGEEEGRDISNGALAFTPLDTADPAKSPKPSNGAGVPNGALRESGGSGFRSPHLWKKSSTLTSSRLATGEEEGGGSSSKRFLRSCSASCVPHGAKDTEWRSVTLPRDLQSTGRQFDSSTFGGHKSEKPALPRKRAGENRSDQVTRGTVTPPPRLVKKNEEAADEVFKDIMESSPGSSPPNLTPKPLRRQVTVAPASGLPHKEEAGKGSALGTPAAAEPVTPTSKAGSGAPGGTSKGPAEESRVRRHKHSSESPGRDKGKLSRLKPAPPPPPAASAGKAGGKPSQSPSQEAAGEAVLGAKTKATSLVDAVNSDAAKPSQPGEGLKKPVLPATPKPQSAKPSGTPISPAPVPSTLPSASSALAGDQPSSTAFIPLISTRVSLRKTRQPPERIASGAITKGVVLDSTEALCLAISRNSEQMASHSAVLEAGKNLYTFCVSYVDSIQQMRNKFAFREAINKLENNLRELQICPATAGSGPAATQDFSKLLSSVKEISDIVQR
Sequence of Epidermal growth factor receptor (P00533 whole entry): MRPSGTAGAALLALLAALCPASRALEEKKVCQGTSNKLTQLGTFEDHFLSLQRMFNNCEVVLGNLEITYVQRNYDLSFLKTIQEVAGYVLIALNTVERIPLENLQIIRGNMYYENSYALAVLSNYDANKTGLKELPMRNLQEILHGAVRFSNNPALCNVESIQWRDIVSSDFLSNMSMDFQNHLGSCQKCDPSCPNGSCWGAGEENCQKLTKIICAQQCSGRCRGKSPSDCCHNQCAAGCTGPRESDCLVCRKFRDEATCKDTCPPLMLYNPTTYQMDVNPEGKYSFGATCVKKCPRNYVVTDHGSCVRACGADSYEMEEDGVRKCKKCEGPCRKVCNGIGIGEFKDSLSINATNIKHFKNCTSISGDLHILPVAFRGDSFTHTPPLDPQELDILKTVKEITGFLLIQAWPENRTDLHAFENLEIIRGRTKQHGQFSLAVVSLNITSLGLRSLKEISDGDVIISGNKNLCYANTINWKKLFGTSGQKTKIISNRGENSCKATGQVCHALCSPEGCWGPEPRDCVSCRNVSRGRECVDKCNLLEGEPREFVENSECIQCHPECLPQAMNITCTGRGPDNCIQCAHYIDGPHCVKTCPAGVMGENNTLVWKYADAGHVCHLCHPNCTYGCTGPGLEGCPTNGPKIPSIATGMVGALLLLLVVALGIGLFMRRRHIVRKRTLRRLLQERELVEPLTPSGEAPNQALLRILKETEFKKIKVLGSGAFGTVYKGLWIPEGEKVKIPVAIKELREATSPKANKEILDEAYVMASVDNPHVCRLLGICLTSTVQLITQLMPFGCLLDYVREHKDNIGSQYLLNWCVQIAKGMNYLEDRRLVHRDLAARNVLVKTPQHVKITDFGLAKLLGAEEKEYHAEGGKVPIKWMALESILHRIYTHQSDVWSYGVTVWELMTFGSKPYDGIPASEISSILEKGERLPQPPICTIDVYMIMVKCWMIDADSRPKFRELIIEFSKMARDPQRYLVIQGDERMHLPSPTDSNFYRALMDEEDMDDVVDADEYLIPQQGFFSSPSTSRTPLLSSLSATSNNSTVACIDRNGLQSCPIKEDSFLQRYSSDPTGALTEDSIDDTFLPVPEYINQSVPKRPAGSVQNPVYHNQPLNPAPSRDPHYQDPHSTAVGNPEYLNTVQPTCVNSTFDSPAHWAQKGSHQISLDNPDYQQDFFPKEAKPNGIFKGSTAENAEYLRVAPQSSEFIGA

IC50 [1]: > 50 µM | IC50 [2]: > 100 µM | IC50 [4]: > 100 µM
Compound: C=C(C)Cn1c(O)c(CO)sc1=NN=c1scc(O)n1C [Thiazolidine-dione, 8]

IC50 [1]: 100 µM | IC50 [5]: > 100 µM | IC50 [2]: > 100 µM | IC50 [3]: > 100 µM | IC50 [4]: > 100 µM
Compound: C=C(C)Cn1c(O)c(OS(=O)O)sc1=NN=c1scc(O)n1C [Thiazolidine-dione, 10]

IC50 [5]: > 100 µM | IC50 [2]: 15 µM | IC50 [3]: > 50 µM | IC50 [4]: 39 µM
Compound: O=c1c(-c2ccc(O)cc2)coc2cc(O)cc(O)c12 [Prunetol]

IC50 [1]: > 100 µM | IC50 [2]: > 100 µM | IC50 [3]: > 100 µM | IC50 [4]: > 100 µM
Compound: C=CCn1c(O)c(CC(=O)O)sc1=NN=c1scc(O)n1C [Thiazolidine-dione, 9]

More lines, now with the values behind:

Compound: C=C(C)Cn1c(O)c(C)sc1=NN=c1scc(O)n1C [Thiazolidine-dione, 6]
IC50 [1]: > 50 µM | IC50 [2]: > 100 µM | IC50 [3]: > 100 µM | IC50 [4]: > 100 µM

Compound: C=CCn1c(O)c(C)sc1=NN=c1scc(O)n1C [Thiazolidine-dione, 5]
IC50 [1]: > 50 µM | IC50 [2]: > 100 µM | IC50 [3]: > 100 µM | IC50 [4]: > 100 µM

Compound: C=C(C)CN1C(=O)C(=C)SC1=NN=c1scc(O)n1C [Thiazolidine-dione, 2]
IC50 [1]: 1 µM | IC50 [5]: > 500 µM | IC50 [2]: > 100 µM | IC50 [3]: 3 µM | IC50 [4]: 100 µM

Compound: C=C(C)Cn1c(O)csc1=NN=c1scc(O)n1C [Thiazolidine-dione, 4]
IC50 [1]: > 50 µM | IC50 [2]: > 100 µM | IC50 [3]: > 100 µM | IC50 [4]: > 100 µM

Compound: C=C(C)Cn1c(O)c(CN(C)C)sc1=NN=c1scc(O)n1C [Thiazolidine-dione, 3]
IC50 [1]: 2 µM | IC50 [5]: > 500 µM | IC50 [2]: 350 µM | IC50 [3]: 7 µM | IC50 [4]: > 100 µM

Compound: C=C(C)Cn1c(O)c(O)sc1=NN=c1scc(O)n1C [Thiazolidine-dione, 7]
IC50 [1]: > 100 µM | IC50 [2]: > 100 µM | IC50 [3]: > 100 µM | IC50 [4]: > 100 µM

Compound: C=CCN1C(=O)C(=C)SC1=NN=c1scc(O)n1C [Thiazolidine-dione, 1]
IC50 [1]: 6 µM | IC50 [5]: > 500 µM | IC50 [2]: > 500 µM | IC50 [3]: 4 µM | IC50 [4]: > 100 µM
